Publication PMC4669242 (Bioorganic & medicinal chemistry letters, 2013)

Assays:
E. coli = assay: Leakage of intracellular β-galactosidase; format: cell-based, E. coli (ATCC 25922); conditions: 1 h of treatment, 37 °C, ONPG, OD405, average of three independent experiments
[1] = tested on: human red blood cells (hRBCs); assay: Hemolysis assay, release of hemoglobin; format: cell-based; conditions: hRBCs in PBS pH 7.4, 1 h, 37 °C, OD405; average of two independent experiments

In the case of Melittin, the “increase in β-galactosidase release as compared to control buffer” value (E. coli) is reported as 8 fold and the “concentration inducing hemolysis (lowest concentration tested)” value [1] is reported as ≤ 1000 nM.
